Data on four compounds can be found in patent US9642362B2, “Antimicrobial compositions and uses thereof” (CASCADES CANADA ULC, priority 2012, dated 2017).

The test system of experiment [1] is E. coli ATCC 11229. As to the kind of experiment: Agar diffusion test of pre-soaked paper towel. The class given is cell-based, Escherichia coli. The note with it: FIG. 5. The source says:
The antimicrobial activity of the compositions as described herein on a cellulosic substrate could be determined by soaking the cellulosic substrate in the compositions to be tested and plating the cellulosic substrate on agar. An agar diffusion test could then be performed.
The agar well diffusion method previously described by Tagg et al. 1976 was applied as a rapid method to detect the inhibitory activity of the compounds directly (as a solution) or after immobilization on paper towel. Briefly, 25 mL of sterile TSB with 0.8% (w/v) agar was seeded with 150 μL of an overnight culture of one of the target sensitive strains and poured into a sterile Petri dish (Starstedt Inc., Montreal, Canada). The Petri dishes were kept for 20 min at room temperature under sterile conditions to allow agar solidification. Wells 7 mm in diameter were then cut in the solidified agar using the wide end of a sterile 5-mL pipette. Each well was filled with 80 μL of the compound or mixture to be tested. In the case of pre-soaked paper towel, circles 1 cm in diameter were cut and deposited directly on the solidified agar. All plates were incubated at 30° C. for 18 h and the diameter of the zone of inhibition was measured.
The aim of this experiment was to study the inhibition of bacterial growth by the antimicrobial Mix I and II in association with paper towels.
A general note: In agar diffusion tests the substance spreads into inoculated agar from a disc or well.

Experiment [2] concerns E. coli ATCC 11229. Nature of the experiment: Growth curves by microplate microdilution method. The class given is cell-based, Escherichia coli. The note with it: for Reduction of growth, taken separately compared with combined (Mix II): FIG. 1A; for Inhibition (growth curves): FIGS. 1A, 2, compounds alone at citric acid 0.25%, lactic acid 0.25%, reuterin 1.25%, or combined as Mix. The protocol:
(§1) The inhibitory activity of the various antimicrobial compounds alone or in combination was assayed using the microtiter plate critical dilution method with two-fold serial dilutions in TSB (Turcotte et al., 2004). The 100-μL carry-over volume was drawn into the multi-channel pipette four times between each dilution. Wells were then seeded with 40 μL of target strain overnight culture diluted 1,000 fold. The plates (MIC-2000 U-Bottom Microtiter® Plates; Thermo Labsystems, Franklin, Mass., USA) were incubated at 30° C. for 18 h before reading the optical density at 650 nm using a Thermomax microplate reader (Molecular Devices, Opti-Resources, Charny, QC, Canada).
(§2) One arbitrary unit (AU) was defined as a 100-μL portion of the highest dilution of tested sample that inhibited growth in a well after 18 h of incubation (Daba et al, 1993). […] The number of AU per ml is thus […], where n=number of inhibited wells.
Background: Dilution methods test growth across graded concentrations, often in twofold steps.

The test system of another experiment is Listeria ivanovii HPB28. As to the kind of experiment: Growth curves by microplate microdilution method. The class given is cell-based. The note with it: for Reduction of growth, taken separately compared with combined (Mix II): FIG. 1B; for Reduction of growth, taken separately compared with combined (Mix I): FIG. 2B, lactic acid (0.125%), citric acid (0.0625%) and pediocin; for Inhibition (growth curves): FIGS. 1B, 2, compounds alone at citric acid 0.25%, lactic acid 0.25%, reuterin 1.25%, or combined as Mix. The protocol: as §1, §2

Where no end group is shown, it is not given here.

As to `CC(=O)O` [acetic acid], in the experiment with E. coli ATCC 11229 [1], the “Inhibition of bacterial growth, individually compared with Mix I and Mix II” value (“Inhibition … compared with Mix I and Mix II” for short) is reported as “do not inhibit E. Coli ATCC 11229 bacterial growth as efficiently as Mix I”.

Turning to `O=C(O)CC(O)(CC(=O)O)C(=O)O` [citric acid], in the experiment with E. coli ATCC 11229 [2], the “Reduction of growth, taken separately compared with combined (Mix II)” value (“Reduction of growth, taken separately … (Mix II)” below) was “do not reduce the growth of E. Coli ATCC 11229 or Listeria ivanovii HPB28 as efficiently”; the “Inhibition (growth curves)” value is “partial and non-significant inhibition”. Besides, in the experiment on Listeria ivanovii HPB28, the “Reduction of growth, taken separately … (Mix II)” value was “do not reduce the growth of E. Coli ATCC 11229 or Listeria ivanovii HPB28 as efficiently”; the “Reduction of growth, taken separately compared with combined (Mix I)” value (“Reduction of growth, taken separately … (Mix I)” below) was “do not reduce the growth of Listeria ivanovii HPB28 as efficiently”; the “Inhibition (growth curves)” value is “partial and non-significant inhibition”.

Take `CC(O)C(=O)O` (centres unmarked) [lactic acid]: in the experiment with E. coli ATCC 11229 [2], the “Reduction of growth, taken separately … (Mix II)” value was “do not reduce the growth of E. Coli ATCC 11229 or Listeria ivanovii HPB28 as efficiently”; the “Inhibition (growth curves)” value is “partial and non-significant inhibition”. Further, in the experiment with Listeria ivanovii HPB28, the “Reduction of growth, taken separately … (Mix II)” value was “do not reduce the growth of E. Coli ATCC 11229 or Listeria ivanovii HPB28 as efficiently”; the “Reduction of growth, taken separately … (Mix I)” value was “do not reduce the growth of Listeria ivanovii HPB28 as efficiently”; the “Inhibition (growth curves)” value is “partial and non-significant inhibition”. Further, the “Inhibition … compared with Mix I and Mix II” value in the experiment with E. coli ATCC 11229 [1] is “do not inhibit E. Coli ATCC 11229 bacterial growth as efficiently as Mix I”.

On to “pediocin: Fresh pediocin extract; class IIa bacteriocin produced by lactic acid bacteria (KYYGNGVTCGKHSCSVDWGKATTCIINNGAMAWATGGHQGNHKC; ends and bridges not checked; cysteine pairing not given here; UniProt P29430 19-62, looked up)”, for which the “Reduction of growth, taken separately … (Mix I)” value in the experiment with Listeria ivanovii HPB28 is reported as “do not reduce the growth of Listeria ivanovii HPB28 as efficiently”. Moreover, the “Inhibition … compared with Mix I and Mix II” value with E. coli ATCC 11229 [1] is “do not inhibit E. Coli ATCC 11229 bacterial growth as efficiently as Mix I”.
